Columns and labels:
MDA-MB-231 cells [1] = assay: MTT proliferation assay; assay type: cell-based, human; conditions: 10 μM; FIG. 13A
Protocol: The ability of ATN-291-Dox to inhibit proliferation of MDA-MB-231 cells was tested in an MTT assay. […] A dose titration was performed with the ATN-291-Dox conjugate. As shown in FIG. 10B the conjugate inhibited proliferation with an IC-50 of ˜1.6 μM.

MDA-MB-231 cells [2] = assay: Distribution of Dox by fluorescence microscopy; assay type: cell-based, human; conditions: 1.6 μM, 24 h; FIG. 14
Protocol: To further characterize the ATN-291-Dox conjugates the distribution of Dox was monitored by fluorescence microscopy. MDA-MB-231 cells grown on glass chamber slides were incubated with either 1.6 μM Dox or 1.6 μM ATN-291-Dox for 24 h under the same conditions used for the MTT assay. Following incubation, the supernatant was removed and the cells washed extensively with PBS. Cells were fixed in paraformaldehyde, mounted and observed by fluorescence microscopy.

Structure (SMILES): COc1cccc2c1C(=O)c1c(O)c3c(c(O)c1C2=O)C[C@@](O)(C(=O)CO)C[C@@H]3O[C@H]1C[C@H](N)[C@H](O)[C@H](C)O1 [Dox, doxorubicin]
- effect on cell proliferation (MDA-MB-231 cells [1]): significantly inhibited proliferation
- cellular localization of Dox fluorescence (MDA-MB-231 cells [2]): primarily localized to the nucleus of treated cells
